# Test system: Wheat
# Experiment: Greenhouse test of the safener's protective action on wheat against herbicide damage (post-emergence tank mix)
# Type: in vivo
# Conditions: 2- to 3-leaf stage, tank mix with herbicide propynyl (R)-2[4-[(5-chloro-3-fluoro-2-pyridynyl]oxy-phenoxy]propanoate, 20 days post-application
# Source text: Wheat seeds are sown in the greenhouse in plastic pots comprising 0.5 l of garden soil.
smiles,measurement,value
"CCCCCC(C)OC(=O)COc1ccc(Cl)c2cccnc12 (stereo not shown) [safener of the formula I, 1-methylhexyl (5-chloroquinolin-8-yloxy)acetate tetrahydrate]",protective action of the safener in comparison with the plants treated with the herbicide only,very effective

# — patent US20040038824A1, “Agrochemical composition” (priority 2000, published 2004)
